Laboratory results from article PMC3766871, “Separacenes A–D, Novel Polyene Polyols from the Marine Actinomycete, Streptomyces sp” (Marine Drugs, 2013).

Columns and labels:
isocitrate lyase (ICL) [1] = molecular target: T1, isocitrate lyase (ICL) (Candida albicans, UniProt Q9P8Q7); test: enzyme assay with purified ICL, glyoxylate phenylhydrazone formation at […] nm; assay type: biochemical
T1 construct: gene ICL1

isocitrate lyase (ICL) [2] = molecular target: T1, isocitrate lyase (ICL); test: positive control in enzyme assay with purified ICL, glyoxylate phenylhydrazone formation at […] nm; assay type: biochemical

T1 sequence (Q9P8Q7 whole entry): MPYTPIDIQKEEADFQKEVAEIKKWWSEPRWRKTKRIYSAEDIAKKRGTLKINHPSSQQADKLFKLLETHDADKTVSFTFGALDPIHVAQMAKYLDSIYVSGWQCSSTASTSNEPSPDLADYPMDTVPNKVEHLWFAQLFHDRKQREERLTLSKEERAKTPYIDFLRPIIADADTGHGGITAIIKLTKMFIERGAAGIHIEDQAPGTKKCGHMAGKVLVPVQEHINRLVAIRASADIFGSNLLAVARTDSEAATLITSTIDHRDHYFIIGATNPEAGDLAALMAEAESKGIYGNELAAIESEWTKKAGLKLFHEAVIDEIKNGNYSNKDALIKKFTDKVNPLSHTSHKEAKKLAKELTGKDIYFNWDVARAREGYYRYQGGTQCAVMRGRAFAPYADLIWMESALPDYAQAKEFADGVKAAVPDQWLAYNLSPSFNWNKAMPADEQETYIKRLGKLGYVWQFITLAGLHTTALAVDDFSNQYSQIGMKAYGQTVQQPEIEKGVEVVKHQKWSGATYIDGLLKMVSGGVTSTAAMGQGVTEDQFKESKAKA

Question: For C=C[C@@H](O)[C@H](O)/C=C/C=C/C=C/C=C/[C@@H](O)[C@@H](C)O [compound 1, Separacene A], which IC50 (isocitrate lyase (ICL) [1]) is on record?
Answer: Its IC50 is 172 µM.

Question: Which IC50 (isocitrate lyase (ICL) [2]) does the source give for O=C(O)CC[N+](=O)[O-] [3-Nitropropionic acid] here?
Answer: The IC50 was 11.3 µM.
